Assay results as given in ChEMBL document CHEMBL1201862, “PubChem BioAssay data set” (2004).
The source made the active and inactive calls.

Columns and labels:
Paired box protein Pax-8 = Paired box protein Pax-8 (Homo sapiens, UniProt Q06710); test: inhibitors of PAX8-driven TPO luciferase reporter, dose response, RMG-I cells, cherry-pick (AID 687027); assay type: functional, cell-based;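 note: luciferase reporter driven by Pax8 target thyroperoxidase promoter measured by SteadyGlo luminescence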
[1] = IGROV1 ovarian cancer cell cytotoxicity, dose response, PAX8 inhibitor project, plate reader, dry powder samples (AID 743043); assay type: functional, cell-based; details: IGROV-1
[2] = cytotoxicity in OVCAR8 ovarian cancer cells, dose response, PAX8 project, cell-based, plate reader, dry powder samples (AID 743197); assay type: functional; details: OVCAR-8
[3] = inhibitors of intracellular T. cruzi replication, confirmation, NIH3T3 host cells, beta-gal luminescence (AID 2044); assay type: functional, cell-based;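 note: intracellular parasites grown in NIH/3T3 mouse fibroblasts as host cells; luminescent beta-galactosidase reporter signal from transgenic T. cruzi replicating inside host cells; inhibitors lower the luminescence signal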
[4] = cytotoxicity toward NIH3T3 fibroblasts, dose response, counter-screen, cell-based, ATP luminescence, mouse fibroblasts (AID 2010); assay type: functional;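 note: cells exposed to compound for about 90 hours before reading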
[5] = THP-1 cell cytotoxicity, dose response, cytotoxicity control for Vif-APOBEC3G degradation inhibitor project, THP-1 cells (AID 1117359); assay type: functional; details: Human immunodeficiency virus 1, THP-1
Galanin receptor type 3 = target: T1, Galanin receptor type 3 (Homo sapiens, UniProt O60755); test: Fluorescence-based cell-based primary high throughput dose response assay to identify antagonists of the Galanin Receptor 3 (GalR3).; assay type: functional
T1 sequence (O60755 whole entry): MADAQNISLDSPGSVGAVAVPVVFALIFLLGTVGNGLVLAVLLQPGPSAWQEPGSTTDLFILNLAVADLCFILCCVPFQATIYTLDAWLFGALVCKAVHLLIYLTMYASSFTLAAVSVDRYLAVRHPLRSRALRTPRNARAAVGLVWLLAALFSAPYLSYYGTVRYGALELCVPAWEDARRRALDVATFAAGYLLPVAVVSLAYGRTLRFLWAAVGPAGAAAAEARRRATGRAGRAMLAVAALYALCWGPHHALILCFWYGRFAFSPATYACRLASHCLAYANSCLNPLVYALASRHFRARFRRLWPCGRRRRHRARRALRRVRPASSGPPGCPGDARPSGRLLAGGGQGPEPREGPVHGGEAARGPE

cells [6] = assay type: functional, cell-based; details: HEK-CNG
Albumin = Albumin (Bos taurus, UniProt P02769); test: Counterscreen for inhibitors of T-cell receptor (TCR)-CD3 interaction: Fluorescence-based biochemical high throughput dose response assay to identify inhibitors of T-cell receptor (TCR)-CD3 interaction using a TAMRA-labeled BSA probe.; assay type: functional
Major prion protein = Major prion protein (Homo sapiens, UniProt P04156); assay type: functional, cell-based
cells [7] = test: cells
[8] = Luminescence Cell-Based Dose Response HTS to Identify Activators of Luciferase Translation or Activity in H4 […] Cells. [Related pubchem assays: 1829 (Project Summary), 1814 (Primary HTS)]; assay type: functional
H4 = test: Luminescence Cell-Based Dose Response HTS to Identify Activators of 5'UTR Stem-Loop Driven Prion Protein mRNA Translation in H4 Neuroglioblastoma Cells. [Related pubchem assays: 1829 (Project Summary), 1814 (Primary HTS)]; assay type: functional; details: Homo sapiens
[9] = Luminescence-based cell-based high throughput dose response assay to identify activators of the DAF-12 from the parasite S. stercoralis (ssDAF-12).; assay type: functional
[10] = target: T2, Oxysterols receptor LXR-beta (Homo sapiens, UniProt P55055); test: LXR agonists, Gal4 luciferase reporter, dose response, counter-screen for ssDAF-12 agonist project, cell-based, luminescence, HEK293, S. stercoralis campaign (AID 720737); assay type: functional; details: read-out: IC50 (the source's name)
T2 sequence (P55055 whole entry): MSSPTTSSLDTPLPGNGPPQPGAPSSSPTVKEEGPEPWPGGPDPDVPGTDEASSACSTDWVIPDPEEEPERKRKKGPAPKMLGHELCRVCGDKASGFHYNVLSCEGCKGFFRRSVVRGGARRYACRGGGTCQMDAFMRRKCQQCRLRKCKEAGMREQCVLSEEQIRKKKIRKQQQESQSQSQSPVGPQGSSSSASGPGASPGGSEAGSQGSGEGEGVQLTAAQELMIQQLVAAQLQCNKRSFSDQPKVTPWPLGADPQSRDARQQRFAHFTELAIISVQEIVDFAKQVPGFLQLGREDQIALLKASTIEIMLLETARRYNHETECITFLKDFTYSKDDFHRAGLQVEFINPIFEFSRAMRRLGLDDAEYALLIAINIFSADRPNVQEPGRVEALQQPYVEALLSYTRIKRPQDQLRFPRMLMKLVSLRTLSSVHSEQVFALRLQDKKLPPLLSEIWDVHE

[11] = target: T2, Oxysterols receptor LXR-beta; assay type: functional, cell-based
[12] = NIH:OVCAR-3 ovarian cancer cell cytotoxicity, dose response, PAX8 inhibitor project, plate reader, dry powder samples (AID 743044); assay type: functional, cell-based
Prothrombin = Prothrombin (Homo sapiens, UniProt P00734); test: Thrombin 1536 HTS Dose Response Confirmation. [Related pubchem assays: 1046 (Thrombin 1536 HTS; hits were confirmed in this assay)]; assay type: functional
Cytochrome P450 3A4 = Cytochrome P450 3A4 (Homo sapiens, UniProt P08684);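 note: CYP3A4 tested as one member of a cytochrome P450 panel screen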
BJ [13] = test: cytotoxicity toward BJ-TERT fibroblasts, dose response, cell-based, RAS-independent, luminescence (AID 1933); assay type: functional; details: Homo sapiens
[14] = target: Luciferin 4-monooxygenase (Photinus pyralis, UniProt P08659); test: Counter Screen for Luciferase-based Assay Positives. [Related pubchem assays: 620, 618, 411 ]
BJ [15] = test: cells; assay type: functional, cell-based; details: Homo sapiens
HT-1080 = test: cytotoxicity in HT1080 fibrosarcoma cells, cell-based, fluorescence readout (AID 620); assay type: functional; details: Homo sapiens
BJ [16] = test: cytotoxicity toward BJ-TERT-LT-ST fibroblasts, dose response, cell-based, RAS-independent, luminescence (AID 1935); assay type: functional; details: Homo sapiens;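 note: BJ fibroblasts immortalized with TERT plus LT and ST oncogenes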
[17] = cytotoxicity toward DRD oncogenic fibroblasts, dose response, cell-based, non-viral oncogenic, luminescence (AID 1934); assay type: functional; details: Homo sapiens
[18] = Luminescence Cell-Based Dose Response HTS to Identify Inhibitors of 5'UTR Stem-Loop Driven Prion Protein mRNA Translation in H4 Neuroglioblastoma Cells. [Related pubchem assays: 1827 (Project Summary), 1813 (Primary HTS)]; assay type: functional
[19] = inhibitors of SNCA 5'UTR-driven reporter translation, confirmation, H4 neuroglioma cells, luminescence (AID 1988); assay type: functional, cell-based
[20] = target: T2, Oxysterols receptor LXR-beta; assay type: functional, cell-based; remark: listed apart in the source
cells [21] = test: cells; remark: listed apart in the source
Aminopeptidase N = target: T3, Aminopeptidase N (Plasmodium falciparum FcB1/Columbia, UniProt O96935); test: P. falciparum M1AAP inhibitors, biochemical, fluorogenic H-Leu-NHMec substrate, 1536-well (AID 1445); parameters: species or system Plasmodium falciparum 3D7, 3D7
T3 sequence (O96935 whole entry): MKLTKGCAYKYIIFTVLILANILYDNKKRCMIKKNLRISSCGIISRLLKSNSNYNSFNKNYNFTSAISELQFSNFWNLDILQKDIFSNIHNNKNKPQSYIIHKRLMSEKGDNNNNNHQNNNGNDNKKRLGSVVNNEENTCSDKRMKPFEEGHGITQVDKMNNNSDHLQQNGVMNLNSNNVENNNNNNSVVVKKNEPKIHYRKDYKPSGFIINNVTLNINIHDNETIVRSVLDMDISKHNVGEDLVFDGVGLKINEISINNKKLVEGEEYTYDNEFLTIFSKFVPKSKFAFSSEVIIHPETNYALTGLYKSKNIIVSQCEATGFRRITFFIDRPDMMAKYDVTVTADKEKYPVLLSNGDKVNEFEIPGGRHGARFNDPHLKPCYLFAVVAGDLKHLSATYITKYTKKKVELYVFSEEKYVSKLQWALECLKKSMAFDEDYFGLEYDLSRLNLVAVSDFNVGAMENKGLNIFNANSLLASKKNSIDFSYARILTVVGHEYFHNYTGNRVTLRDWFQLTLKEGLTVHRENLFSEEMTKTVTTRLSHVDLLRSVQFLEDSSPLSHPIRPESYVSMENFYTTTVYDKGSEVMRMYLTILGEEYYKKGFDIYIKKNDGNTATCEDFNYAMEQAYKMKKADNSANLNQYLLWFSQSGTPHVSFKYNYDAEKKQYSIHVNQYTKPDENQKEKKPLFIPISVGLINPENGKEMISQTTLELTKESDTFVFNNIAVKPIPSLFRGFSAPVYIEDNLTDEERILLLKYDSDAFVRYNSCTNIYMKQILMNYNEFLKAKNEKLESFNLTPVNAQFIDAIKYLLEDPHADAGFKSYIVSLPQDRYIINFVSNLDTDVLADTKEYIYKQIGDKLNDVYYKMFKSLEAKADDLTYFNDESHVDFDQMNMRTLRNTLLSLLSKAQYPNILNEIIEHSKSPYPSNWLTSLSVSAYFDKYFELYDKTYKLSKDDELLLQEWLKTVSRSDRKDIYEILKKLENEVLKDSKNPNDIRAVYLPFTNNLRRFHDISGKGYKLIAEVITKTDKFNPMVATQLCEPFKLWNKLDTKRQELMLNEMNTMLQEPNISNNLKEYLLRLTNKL

Estrogen receptor beta = Estrogen receptor beta (Homo sapiens, UniProt Q92731);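 note: recombinant ER-beta bound to coactivator SRC1 peptide in presence of estradiol agonist; inhibitors block coactivator peptide binding and lower the FRET signal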
INS1 = test: beta cell apoptosis inhibitors, cytokine rescue, dose response, luminescence, retest (AID 449756); assay type: functional, cell-based; details: Rattus norvegicus;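 note: cell death triggered by IL-1 beta plus TNF-alpha plus IFN-gamma mixture; protective hits raise ATP signal compared with cytokine alone wells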

C[C@@H]1CN([C@H](C)CO)C(=O)c2cc(NS(=O)(=O)c3ccccc3)ccc2O[C@@H](C)CCCCO[C@@H]1CN(C)Cc1ccc(Cl)c(Cl)c1
AC50 (Paired box protein Pax-8): 4.44 µM (active)
AC50 [1]: 27.8 µM (active)
AC50 [2]: 46.5 µM (active)

CCCCN(CCCC)S(=O)(=O)c1ccc(NC(=O)c2cccs2)cc1
EC50 [3]: 1.83 µM (active)
EC50 [4]: > 60 µM (not active)
CC50 [5]: 27.9 µM (active)

CC1(C)CC2CC(C)(CN2S(=O)(=O)c2ccc(C(=O)Nc3cccc(S(=O)(=O)N4CCOCC4)c3)cc2)C1 (stereo not given)
IC50 (Galanin receptor type 3): 0.805 µM (active)
EC50 (cells [6]): > 29.9 µM (inactive)
IC50 (Albumin): > 94.1 µM (inactive)

CCc1nc(SCC(=O)NNC(=O)c2ccc(C)cc2)c2ccccc2n1
IC50 (Major prion protein): 1.36 µM (active)
IC50 (cells [7]): > 138 µM (inactive)

O=C(O)c1cc(-c2cccs2)nc2ccc(Br)cc12
IC50 (Major prion protein): 1.41 µM (active)
IC50 (cells [7]): > 138 µM (inactive)

Cn1ccnc1SCC(=O)c1c[nH]c2ccccc12
EC50 [8]: 0.343 µM (active)
EC50 (H4): < 0.195 µM (active)
IC50 [9]: > 67.5 µM (inactive)
EC50 [10]: > 67.5 µM (inactive)

CCOC(=O)N1CCC(/N=c2/c(-c3ccc(C)cc3)c(O)c2=O)CC1
IC50 [9]: > 67.5 µM (inactive)
EC50 [10]: > 67.5 µM (inactive)

CCC1(CC)Cc2ccccc2-c2nc(S)nc(O)c21
IC50 (Major prion protein): 3.08 µM (active)
IC50 (cells [7]): > 138 µM (inactive)

Cc1cc(OCc2cc(C(=O)NCc3cc(C(C)C)no3)no2)cc(C)c1Cl
EC50 [11]: > 67.5 µM (inactive)

COc1ccccc1S(=O)(=O)N1CC[C@H]2[C@@H](CO)N(C)c3ccc(-c4ccc(C#N)cc4)cc3[C@H]21
AC50 (Paired box protein Pax-8): 38.1 µM (active)
AC50 [12]: 37.8 µM (active)

CCOC(=O)CSc1nnc(NC(=O)c2ccccc2)[nH]1
IC50 (Prothrombin): 0.862 µM (active)
AC50 (Cytochrome P450 3A4): 39.8 µM (inconclusive)

CC1CCc2c(sc(NC(=O)COC(=O)C3CCCO3)c2C#N)C1 (stereo not given)
IC50 (Prothrombin): > 50 µM (not active)

COc1ccc(CN2C(=O)c3ccccc3C2C(=O)NC2CCCCCC2)c(OC)c1 (stereo not given)
IC50 (Prothrombin): 10.8 µM (active)

Cc1ccc(C(=N)NOC(=O)c2cccs2)cc1
EC50 [11]: > 67.6 µM (inactive)

O=C(c1c(Cl)nc2sccn12)N1CCN(c2cccc(Cl)c2)CC1
EC50 (BJ [13]): 3.07 µM (active)
EC50 [14]: 0.39 µM (active)
EC50 (BJ [15]): 75.7 µM (inconclusive)
EC50 (HT-1080): 11.3 µM (active)
EC50 (BJ [16]): 1.36 µM (inconclusive)
EC50 [17]: 1.56 µM (active)

C=CCn1c(C)cc(C(=O)CSc2nc3ccccc3[nH]2)c1C
EC50 [14]: < 0.2 µM (active)
EC50 [18]: 11.1 µM (active)
EC50 [19]: 9.31 µM (active)
EC50 (HT-1080): > 50 µM (not active)

Cn1cc(Cl)c(C(=O)Nc2nc3ccccc3s2)n1
IC50 [9]: > 67.5 µM (inactive)
EC50 [10]: > 67.5 µM (inactive)
EC50 [20]: > 67.5 µM (inactive)
EC50 (cells [21]): > 67.5 µM (inactive)

COc1ccc(S(=O)(=O)Nc2ccc3c(c2)C(=O)N([C@@H](C)CO)C[C@H](C)[C@@H](CN(C)Cc2ccc(C(F)(F)F)cc2)OCCCC[C@H](C)O3)cc1
AC50 (Paired box protein Pax-8): 6.83 µM (active)
AC50 [12]: 46.7 µM (active)
AC50 [1]: 37.9 µM (active)
AC50 [2]: > 70 µM (inactive)

CCN1CCN(Cc2c(O)c(Cl)cc3c(C)cc(=O)oc23)CC1
IC50 (Aminopeptidase N): 38.3 µM (active)
IC50 (Estrogen receptor beta): 18 µM (active)

Cc1cc(N2CCOCC2)n2ncc(-c3ccccc3)c2n1
EC50 [14]: 0.2 µM (active)
EC50 (HT-1080): > 50 µM (not active)
AC50 (INS1): 7.88 µM (active)
EC50 [20]: > 67.5 µM (inactive)
EC50 (cells [21]): > 67.5 µM (inactive)

O=C(Nc1cc(C(F)(F)F)ccc1N1CCOCC1)C1Cc2ccccc2CN1C(=O)c1ccco1 (stereo not given)
IC50 (Estrogen receptor beta): 5.94 µM (active)
